These results are taken from patent US5840895A, “Triazole intermediates for tricyclic benzazepine and benzothiazepine derivatives” (Meiji Seika Kabushiki Kaisha, priority 1993, dated 1998).

A word on the IC50: it is the concentration needed to halve the response being measured.

The subject of assay [1] is histamine releasing reaction. Briefly: Test of suppressing histamine releasing reaction (abdominal cavity cells of rats sensitised with anti-DNP-As serum, stimulated with DNP-As). Type of assay: cell-based, rat (male Wister). Particulars: Rattus norvegicus; cells 10^5 cell/ml stimulated with 1 μg/ml DNP-As; test compounds 10^-5 -10^-10 M; read-out: IC50 (suppression of histamine releasing reaction). The procedure:
Test of suppressing histamine releasing reaction
Rat anti-dinitrophenylated ascaris protein (referred to hereinafter as DNP-As) serum was prepared according to the method described by Tada, T. and Okumura, K., J. Immun., 106 (4), 1971. Briefly, 1×10^10 of inviable pertussis and 1 mg of DNP-As were administered subcutaneously to the paw of female Brown Norway rats having a body weight of 200 g. After five days, 0.5 mg of DNP-As was further administered intramuscularly to the rear of the animals. Blood samples were taken after three days of the administration to prepare anti-serum.
A 1 ml portion of the serum diluted four times with physiological saline was administered intraperitoneally to male Wister rats. After two days, abdominal cavity was rinsed with phosphate buffer to recover the cells within the abdominal cavity. After the cell concentration was adjusted to 10^5 cell/ml, the cells were stimulated with 1 μg/ml of DNP-As. The amount of histamine released into the supernatant was measured according to the method described by Shore, P. A., Burkhalter, A. H. and Chon, V. H. Jr., J. Pharm. Exp. Ther., 127, 182-186 (1959).
A dose for suppressing 50% of the histamine releasing reaction, i.e., IC50 value, was calculated from the amounts of histamine released in the group treated with the test compounds in the molar concentrations (M) of 10^-5 -10^-10 and in the control group. The IC50 value as the suppressing effect of the drugs is shown in Table 6 with the IC50 value of sodium chromoglycic acid selected as the control compound.

For assay [2], the system named is allergic edema reaction at paw. The experiment in a line: Test for suppressing immediate and delayed allergic reaction (allergic edema reaction at paw, DNP-OA). The assay is classed as in vivo, rat (male Wister). As to conditions: Rattus norvegicus, oral; for inhibition in vivo at 30 mg/kg: dose: 30 mg/kg of body weight. Here is the method: Test for suppressing immediate and delayed allergic reaction
1×10^10 of inviable pertussis and 1 mg of dinitrophenylated ovalbumin (DNP-OA) were administered subcutaneously to the three paws except the right hind paw of male Wister rats having a body weight of 200 g. After 10 days, 5 μg of DNP-OA was further administered subcutaneously to the right hind paw of the animals to induce the allergic edema reaction at paw. The allergy suppressing effect of the test compounds was examined with reference to the edema volumes after 30 minutes and 8 hours of the induction of the allergic reaction as the immediate and delayed allergic reactions, respectively.
[…] On the other hand, only a solution of 0.25% Tween 80 was orally administered to rats as the untreated control, and 100 mg/kg of sodium chromoglycate subcutaneously or orally to rats as the positive control.
The rate of suppressing the allergic edema reaction at paw was calculated from the following equation.
Suppression rate of the allergic edema reaction at paw
A is an average edema volume in the control, and
B is an average edema volume in the drug treated group.

[3] abbreviates: 0.5 h, edema volume 30 minutes after induction, read-out: Suppressing Rate, Immediate Reaction.
The mark [4] stands for this setting: edema volume 8 hours after induction, read-out: Suppressing Rate, Slow reaction.
Where [5] appears, read: 0.5 h, 30 minutes after induction, read-out: Suppressing Rate, Immediate Reaction.
[6] abbreviates: 8 hours after induction, read-out: Suppressing Rate, Slow reaction.

Structures are written as SMILES. Where two headings read alike, the source gives them in different places.

In the case of `COc1cc2[nH]c(=O)c3nn[nH]c3c(=O)c2cc1OC` [Example 43, 7,8-dimethoxy-4(5H),10-dioxo-1H-1,2,3-triazolo[4,5-c][l]benzazepine], in assay [1], the IC50 was determined as 1.4 nM. Further, the inhibition in vivo at 10 mg/kg in assay [2] (setting [3]) was found to be 59%; in assay [2] (setting [4]), 53%. With `CCc1ccc2c(=O)c3[nH]nnc3c(=O)[nH]c2c1` [Example 12, 7-ethyl-4(5H),10-dioxo-1H-1,2,3-triazolo[4,5-c][l]benzazepine], in assay [1], the concentration for half-maximal inhibition (IC50) stood at 6.2 nM. Further, the results for the inhibition in vivo at 10 mg/kg in assay [2] (setting [3]) and in assay [2] (setting [4]) were 59% and 53%, respectively. With `O=C(/C=C/c1ccc2c(=O)c3[nH]nnc3c(=O)[nH]c2c1)NCc1ccccn1` [Example 54, 4(5H),10-dioxo-7-(2-(N-(2-pyridylmethyl)carbamoyl)-(E)-ethenyl)-1H-1,2,3-triazolo[4,5-c][l]benzazepine], in assay [1], the concentration for half-maximal inhibition (IC50) stood at 3.6 nM.

In the case of `COc1ccc(C(=O)/C=C/c2ccc3c(=O)c4[nH]nnc4c(=O)[nH]c3c2)cc1` [Example 51, 7-(2-(4-methoxybenzoyl)-(E)-ethenyl)-4(5H1), 10-dioxo-1H-1,2,3-triazolo[4,5-c][l]benzazepine], in assay [1], the IC50 was 7.8 nM. `O=c1[nH]c2cc(OCCCN3CCN(Cc4ccccc4)CC3)ccc2c(=O)c2[nH]nnc12` [Example 81, 7-(3-(4-benzyl-1-piperazinyl)propoxy)-4(5H),10-dioxo-1H-1,2,3-triazolo[4,5-c][l]benzazepine]: in assay [1], the IC50 came to 3.8 nM.

With `Cc1ccc2c(=O)c3[nH]nnc3c(=O)[nH]c2c1` [Example 4, 7-methyl-4(5H),10-dioxo-1H-1,2,3-triazolo[4,5-c][l]benzazepine], the IC50 in assay [1] is 2.3 nM. In addition, the inhibition in vivo at 30 mg/kg in assay [2] (setting [5]) amounted to 70.5%; in assay [2] (setting [6]), 57.7%. Take `O=c1[nH]c2cc(OCCCOc3ccccc3)ccc2c(=O)c2[nH]nnc12` [Example 75, 4(5H),10-dioxo-7-(3-phenoxypropoxy)-IH-1,2,3-triazolo[4,5-c][l]benzazepine]: the IC50 in assay [1] worked out at 4 nM.

On to `O=c1[nH]c2cc(OCC(O)CCc3ccccc3)ccc2c(=O)c2[nH]nnc12` (centres unmarked) [Example 80, 7-(2-hydroxy-4-phenylbutoxy)-4(5H),10-dioxo-1H-1,2,3-triazolo[4,5-c][l]benzazepine], for which the IC50 in assay [1] came to 4.7 nM. On the same count and under the same terms, as for `CON=Cc1ccc2c(=O)c3[nH]nnc3c(=O)[nH]c2c1` [Example 58, 7-(methoxyimino)methyl-4(5H),10-dioxo-1H-1,2,3-triazolo[4,5-c][l]benzazepine], the figure is 8.1 nM. As for `O=c1[nH]c2ccccc2c(=O)c2[nH]nnc12` [Example 1, 4(5H),10-dioxo-1H-1,2,3-triazolo[4,5-c][l]benzazepine], in assay [1], the IC50 is 12 nM. The inhibition in vivo at 30 mg/kg worked out at 56.4% in assay [2] (setting [5]) and 24.5% in assay [2] (setting [6]).

In the case of `CC(=O)/C=C/c1ccc2c(=O)c3[nH]nnc3c(=O)[nH]c2c1` [Example 20, 7-(3-oxo-(E)-butenyl)-4(5H),10-dioxo-1H-1,2,3-triazolo[4,5-c][l]benzazepine], in assay [1], the IC50 was found to be 2.9 nM. Moreover, the inhibition in vivo at 10 mg/kg in assay [2] (setting [3]) worked out at 63%; in assay [2] (setting [4]), 51%. In the case of `COc1cc2c(=O)c3[nH]nnc3c(=O)[nH]c2cc1C` [Example 45, 8-methoxy-7-methyl-4(5H),10-dioxo-1H-1,2,3-triazolo[4,5-c][l]benzazepine], the IC50 in assay [1] is 2.9 nM. The same measure, in the same setting: as for `N#CC=Cc1ccc2c(=O)c3[nH]nnc3c(=O)[nH]c2c1` (mixture of isomers) [Example 19, 3:1 mixture of 7-(2-cyano-(E)-ethenyl)-4(5H),10-dioxo-1H-1,2,3-triazolo[4,5-c][l]benzazepine and 7-(2-cyano-(Z)-ethenyl)-4(5H),10-dioxo-1H-1,2,3-triazolo[4,5-c][l]benzazepine], the figure is 4.3 nM. Turning to `COc1ccccc1C(=O)COc1ccc2[nH]c(=O)c3nn[nH]c3c(=O)c2c1` [Example 87, 8-(2-methoxyphenacyloxy)-4(5H),10-dioxo-1H-1,2,3-triazolo[4,5-c][l]benzazepine], the IC50 in assay [1] came out at 7.4 nM. With `Cc1cc2[nH]c(=O)c3nn[nH]c3c(=O)c2cc1C` [Example 44, 7,8-dimethyl-4(5H),10-dioxo-1H-1,2,3-triazolo[4,5-c][l]benzazepine], the IC50 in assay [1] worked out at 8.5 nM. Take `COC(=O)/C(C)=C/c1ccc2c(=O)c3[nH]nnc3c(=O)[nH]c2c1` [Example 50]: in assay [1], the IC50 came to 3.6 nM. Same read-out and setting: as for `O=C(/C=C/c1ccc2c(=O)c3[nH]nnc3c(=O)[nH]c2c1)Nc1nn[nH]n1` [Example 56, 4(5H),10-dioxo-7-(2-(N-(1H-tetrazol-5-yl)carbamoyl)-(E)-ethenyl)-1H-1,2,3-triazolo[4,5-c][l]benzazepine], the figure is 4.7 nM; as for `O=C(/C=C/c1ccc2c(=O)c3[nH]nnc3c(=O)[nH]c2c1)NCc1ccccc1` [Example 53, 7-(2-(N-benzylcarbamoyl)-(E)-ethenyl)-4(5H),10-dioxo-1H-1,2,3-triazolo[4,5-c][l]benzazepine], 4.4 nM; as for `CC(=O)COc1ccc2c(=O)c3[nH]nnc3c(=O)[nH]c2c1` [Example 34, 7-acetonyloxy-4(5H),10-dioxo-1H-1,2,3-triazolo[4,5-c][l]benzazepine], 3.5 nM. `COC(=O)CCc1ccc2c(=O)c3[nH]nnc3c(=O)[nH]c2c1` [Example 17, 7-(2-methoxycarbonylethyl)-4(5H),10-dioxo-1H-1,2,3-triazolo[4,5-c][l]benzazepine]: the IC50 in assay [1] was 4.1 nM. `CS(=O)(=O)NCc1ccc2c(=O)c3[nH]nnc3c(=O)[nH]c2c1` [Example 68, 7-(N-methanesulfonylaminomethyl)-4(5H),10-dioxo-1H-1,2,3-triazolo[4,5-c][l]benzazepine]: the IC50 in assay [1] stood at 3.5 nM.

On to `O=c1[nH]c2cc(OCCOc3ccccc3)ccc2c(=O)c2[nH]nnc12` [Example 78, 4(5H),10-dioxo-7-(2-phenoxyethoxy)-1H-1,2,3-triazolo[4,5-c][l]benzazepine], for which the IC50 in assay [1] amounted to 3.6 nM. Take `Cc1ccc2c(=O)c3[nH]nnc3c(=O)[nH]c2c1` [Example 46, 7-methyl-4(5H),10-dioxo-1H-1,2,3-triazolo[4,5-c][l]benzazepine]: the inhibition in vivo at 10 mg/kg in assay [2] (setting [3]) stood at 64%; in assay [2] (setting [4]), 68%. Turning to `O=C(O)/C=C/c1ccc2c(=O)c3[nH]nnc3c(=O)[nH]c2c1` [Example 18], the IC50 in assay [1] came to 4.5 nM. `O=c1[nH]c2cc(C=NO)ccc2c(=O)c2[nH]nnc12` [Example 57, 7-(hydroxyimino)methyl-4(5H),10-dioxo-1H-1,2,3-triazolo[4,5-c][l]benzazepine]: in assay [1], the IC50 was determined as 2.4 nM. In the case of `O=c1[nH]c2cc(CNS(=O)(=O)c3ccc(F)cc3)ccc2c(=O)c2[nH]nnc12` [Example 70, 7-(N-(4-fluorobenzenesulfonyl)aminomethyl)-4(5H),10-dioxo-1H-1,2,3-triazolo[4,5-c][l]benzazepine], the IC50 in assay [1] worked out at 6.1 nM. In the case of `O=C(COc1ccc2c(=O)c3[nH]nnc3c(=O)[nH]c2c1)c1ccc(Cl)cc1` [Example 74, 7-(4-chlorophenacyloxy)-4(5H),10-dioxo-1H-1,2,3-triazolo[4,5-c][l]benzazepine], the IC50 in assay [1] worked out at 4.5 nM. In the case of `COc1ccccc1C(=O)COc1ccc2c(=O)c3[nH]nnc3c(=O)[nH]c2c1` [Example 73, 7-(2-methoxyphenacyloxy)-4(5H),10-dioxo-1H-1,2,3-triazolo[4,5-c][l]benzazepine], the 50% inhibitory concentration (IC50) in assay [1] turned out to be 4.8 nM.

Take `O=C(CCc1ccccc1)COc1ccc2c(=O)c3[nH]nnc3c(=O)[nH]c2c1` [Example 79, 4(5H),10-dioxo-7-(2-oxo-4-phenylbutoxy)-1H-1,2,3-triazolo[4,5-c][l]benzazepine]: the IC50 in assay [1] worked out at 3.6 nM. For the compound `COc1ccc(C(=O)COc2ccc3c(=O)c4[nH]nnc4c(=O)[nH]c3c2)cc1` [Example 37, 7-(4-methoxyphenacyloxy)-4(5H),10-dioxo-1H-1,2,3-triazolo[4,5-c][l]benzazepine], the half-maximal inhibitory concentration (IC50) in assay [1] was 7.5 nM.
